The text below walks through data of PubChem BioAssay (NCI).

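Dose response: 5 concentrations. Exposure: 48 h. Format: 96-well plates. Endpoint: linear interpolation; highest concentration if not reached. TGI marks complete inhibition of growth.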 Where only a bound is given, the exact number is not on record here.

Some test systems named below: SF-539 CNS; CAKI-1 renal; NCI-H522 lung; SK-MEL-28 melanoma; TK-10 renal; OVCAR-3 ovarian; IGROV1 ovarian; NCI-H460 lung; MALME-3M melanoma; ACHN renal; NCI-H226 lung; HCT-116 colon; SW-620 colon; HOP-92 NSCLC; SF-268 CNS; DMS 114 small cell lung; U251 CNS; HS 578T breast; T-47D breast; MDA-MB-231 breast.
What all share (test): NCI anticancer screen, dose series, 48 h

In the case of `CCOc1ccc(C2=NN(CC)C(=O)C(C3C(=O)N(c4ccccc4)N=C3C)C2)cc1` (centres undefined), the TGI with SF-539 CNS, in the assay on CAKI-1 renal, in the assay on NCI-H522 lung, in the assay with SK-MEL-28 melanoma, with TK-10 renal and with OVCAR-3 ovarian was more than 100 µM in each case. The TGI in the assay with IGROV1 ovarian, in the assay on NCI-H460 lung, with MALME-3M melanoma, with ACHN renal, in the assay with NCI-H226 lung and with HCT-116 colon was more than 100 µM each time. The TGI with SW-620 colon, in the assay on HOP-92 NSCLC, in the assay with SF-268 CNS, with DMS 114 small cell lung and with U251 CNS was more than 100 µM each time.
As for `C=CCNC(=S)NNC(=O)c1c(C)nc2sccn12`, the TGI in the assay on SF-539 CNS, in the assay with CAKI-1 renal, in the assay on NCI-H522 lung, in the assay on SK-MEL-28 melanoma, in the assay on TK-10 renal and with OVCAR-3 ovarian was more than 100 µM each time. For the same molecule, the TGI with IGROV1 ovarian, in the assay with NCI-H460 lung, in the assay on MALME-3M melanoma, in the assay on ACHN renal, in the assay on NCI-H226 lung and in the assay with HCT-116 colon was more than 100 µM each time. The TGI with SW-620 colon, in the assay on HOP-92 NSCLC, in the assay with SF-268 CNS, in the assay with DMS 114 small cell lung and in the assay on U251 CNS was more than 100 µM in each case.
As for `COc1cc2c(oc(=O)c3c4occc4cc(OC)c23)c2cccc(O)c12`, the TGI with SF-539 CNS, in the assay on CAKI-1 renal, in the assay with NCI-H522 lung, in the assay with SK-MEL-28 melanoma, in the assay on TK-10 renal and with OVCAR-3 ovarian was more than 100 µM each time. Besides, the TGI with IGROV1 ovarian, in the assay with NCI-H460 lung, in the assay with MALME-3M melanoma, in the assay on ACHN renal, in the assay on NCI-H226 lung and with HCT-116 colon was more than 100 µM each time. The TGI in the assay with SW-620 colon, with HOP-92 NSCLC, in the assay with SF-268 CNS, in the assay with DMS 114 small cell lung and with U251 CNS was more than 100 µM each time.
Take `CNC(=S)N/N=C/C(C)=N/NC(=S)NC`: the TGI in the assay with SF-539 CNS, in the assay on NCI-H522 lung, with SK-MEL-28 melanoma, in the assay on TK-10 renal, in the assay on OVCAR-3 ovarian and in the assay on NCI-H460 lung was more than 100 µM in each case. Moreover, the TGI in the assay on MALME-3M melanoma, in the assay on ACHN renal, in the assay on HCT-116 colon, in the assay with SW-620 colon, in the assay with SF-268 CNS and in the assay with DMS 114 small cell lung was more than 100 µM throughout. The TGI in the assay on U251 CNS is more than 100 µM.
Turning to `Cc1ccc(C)c2c1C1CCCCC3(OCCCO3)C21O` (centres undefined), the TGI in the assay on SF-539 CNS, in the assay on CAKI-1 renal, with NCI-H522 lung, with SK-MEL-28 melanoma, in the assay on TK-10 renal and with OVCAR-3 ovarian was more than 100 µM in each case. Also, the TGI in the assay on IGROV1 ovarian, with NCI-H460 lung, with MALME-3M melanoma, with ACHN renal, with NCI-H226 lung and with HCT-116 colon was more than 100 µM each time. Moreover, the TGI in the assay on SW-620 colon, in the assay on SF-268 CNS, with DMS 114 small cell lung and in the assay with U251 CNS was more than 100 µM in each case.
On to `OC12CCC3(OC4CCCCO4)c4ccccc4C3C1c1ccccc12` (centres undefined), for which the TGI in the assay on NCI-H522 lung, in the assay with SK-MEL-28 melanoma, in the assay on TK-10 renal, in the assay on NCI-H460 lung, in the assay with MALME-3M melanoma and with ACHN renal was more than 100 µM each time. The TGI in the assay on NCI-H226 lung, in the assay on HCT-116 colon, in the assay on SW-620 colon, with SF-268 CNS, in the assay on DMS 114 small cell lung and in the assay with U251 CNS was more than 100 µM throughout.
For `C/C(=C\C(=O)Nc1ccc2n[nH]nc2c1)Nc1ccc2n[nH]nc2c1`, the TGI with SF-539 CNS, in the assay with CAKI-1 renal, in the assay on NCI-H522 lung, in the assay with SK-MEL-28 melanoma, with TK-10 renal and in the assay with OVCAR-3 ovarian was more than 100 µM each time. Also, the TGI in the assay on IGROV1 ovarian, in the assay with NCI-H460 lung, in the assay on MALME-3M melanoma, with ACHN renal, with NCI-H226 lung and with HCT-116 colon was more than 100 µM throughout. Also, the TGI in the assay on SW-620 colon, with HOP-92 NSCLC, in the assay with SF-268 CNS, in the assay with DMS 114 small cell lung and with U251 CNS was more than 100 µM in each case.
For `Nc1nc(SCc2ccccc2Cl)c2ncn(C3OC(CO)C(O)C3O)c2n1` (centres undefined), the TGI in the assay with SF-539 CNS, in the assay on CAKI-1 renal, with NCI-H522 lung, in the assay on SK-MEL-28 melanoma, in the assay with TK-10 renal and in the assay with OVCAR-3 ovarian was more than 100 µM throughout. Also, the TGI in the assay with IGROV1 ovarian, in the assay with NCI-H460 lung, in the assay on MALME-3M melanoma, in the assay on ACHN renal, in the assay with HCT-116 colon and in the assay with SW-620 colon was more than 100 µM each time. Besides, the TGI in the assay on HOP-92 NSCLC, in the assay on SF-268 CNS, in the assay on DMS 114 small cell lung and in the assay on U251 CNS was more than 100 µM throughout.
For the molecule `CCCOC(=O)c1cc(O)c(O)c(O)c1`, the TGI in the assay with SF-539 CNS is 70.9 µM; in the assay with CAKI-1 renal, more than 100 µM; with NCI-H522 lung it was 77 µM; in the assay on SK-MEL-28 melanoma, more than 100 µM; in the assay on TK-10 renal, more than 100 µM; in the assay on OVCAR-3 ovarian it was 79.8 µM. Moreover, the TGI in the assay on HS 578T breast, in the assay with IGROV1 ovarian, in the assay on NCI-H460 lung, in the assay on MALME-3M melanoma, with ACHN renal and with NCI-H226 lung was more than 100 µM each time. The TGI with HCT-116 colon was 45.3 µM; in the assay on T-47D breast it was more than 100 µM; in the assay on SW-620 colon, more than 100 µM; in the assay with HOP-92 NSCLC, more than 100 µM; in the assay with SF-268 CNS it was more than 100 µM; in the assay with MDA-MB-231 breast, more than 100 µM. For the same molecule, the TGI in the assay with U251 CNS was more than 100 µM.
